Results from PMC7036871, “Identification and Characterization of pantocin wh-1, a Novel Cyclic Polypeptide Produced by Pantoea dispersa W18” (Molecules, 2020).
Where a SMILES comes first, the peptide text is derived from it.

Assays:
L .monocytogenes = experiment: Antimicrobial spectrum, microporous dilution method; type: cell-based, Listeria monocytogenes
Description: (§1) In this paper, the microporous dilution method was used to detect the antibacterial spectrum of pantocin wh-1 against Gram-negative and -positive bacteria. […] The time kill studies were determined over 8 h with M. smegmatis mc^2 155 being exposed to 0.5, 1, 2, or 4 × MIC of pantocin wh-1. […] At 2 × MIC and 4 × MIC, pantocin wh-1 caused bacterial eradication was completed approximately after 4 h.
(§2) The antibacterial activity of the pantocin wh-1 was detected by the microscale optical density assay (MODA) method. Briefly, 90 μL of the dilutions of pantocin wh-1, 100 μL 2 × 7H9 medium, and 10 μL of a log phase indicator strain were co-incubated in the 96-well plate at 37 °C for 48 h. For control groups, 90 μL of the dilutions of pantocin wh-1 were replaced by an equal volume of sterile water. After incubation, the 96 well microplate was measured by a microplate reader at a 600 nm wavelength (Biotek synergyH1, Biotek, Winooski, VT, USA). The amount of pantocin wh-1 produced by P. dispersa W18 was determined using two fold dilutions. […] The results were expressed in AU/mL. The MIC was defined as the last dilution of pantocin wh-1 sufficient to prevent indicator strain growth in vitro.

lysozyme = experiment: Effect of enzymes on antibacterial activity: lysozyme; type: in vitro ADME
Source text: (§3) Furthermore, the antibacterial activity of pantocin wh-1 also retained nearly 100% of the initial activity within a broad pH range (pH 2–12).
(§4) The effect of various enzymes, pH, and temperature on pantocin wh-1 activity was detected as described by J.-M. Chobert et al. with a slight modification. Proteinase K, trypsin, catalase, lysozyme, DNAse, and RNAse were used to test the antibacterial activity of pantocinwh-1. To analyze the effect of different pH values on the antibacterial activity of pantocin wh-1, the sample of pantocin wh-1 was exposed to buffer with a pH value of 2–12 for 1 h at 25 °C. The effect of temperature on the anti-mycobacterial activity of pantocin wh-1 was determined by incubating pantocin wh-1 at 50 °C and 100 °C for 60 min, as well as at 121 °C for 15 min, and then detecting the bactericidal activity against M. smegmatis mc^2 155.

[1] = Effect of heat on antibacterial activity; type: physicochemical; conditions: for Residual activity: compared with antimicrobial activity before the treatment
Source text: as §3
as §4, with “[…],” for “anti-mycobacterial activity of pantocin wh-1 was determined by incubating pantocin wh-1 at 50 °C and 100 °C for 60 min,”

S. aureus B30 = experiment: Antimicrobial spectrum, microporous dilution method; type: cell-based; design: key: -: no inhibitory activity; +: Inhibit the growth of less than 10% amount of the initial bacteria; ++: Inhibit the growth of less than 50% amount of the initial bacteria; +++: Inhibit the growth of initial bacteria completely; conditions: S. aureus B30, medium LB
Description: as §1, §2

Feces Enterococcus = experiment: as above; type: cell-based; design: key: -: no inhibitory activity; +: Inhibit the growth of less than 10% amount of the initial bacteria; ++: Inhibit the growth of less than 50% amount of the initial bacteria; +++: Inhibit the growth of initial bacteria completely; conditions: medium BHI
Description: as §1, §2

S. pyogenes = experiment: as above; type: cell-based; design: key: -: no inhibitory activity; +: Inhibit the growth of less than 10% amount of the initial bacteria; ++: Inhibit the growth of less than 50% amount of the initial bacteria; +++: Inhibit the growth of initial bacteria completely; conditions: medium BHI
Description: as §1, §2

S. aureus AM025 = experiment: as above; type: cell-based; design: key: -: no inhibitory activity; +: Inhibit the growth of less than 10% amount of the initial bacteria; ++: Inhibit the growth of less than 50% amount of the initial bacteria; +++: Inhibit the growth of initial bacteria completely; conditions: S. aureus AM025, medium LB
Description: as §1, §2

S. aureus 21A = experiment: as above; type: cell-based; design: key: -: no inhibitory activity; +: Inhibit the growth of less than 10% amount of the initial bacteria; ++: Inhibit the growth of less than 50% amount of the initial bacteria; +++: Inhibit the growth of initial bacteria completely; conditions: medium LB
Description: as §1, §2

Dysgalactiae = experiment: as above; type: cell-based; design: key: -: no inhibitory activity; +: Inhibit the growth of less than 10% amount of the initial bacteria; ++: Inhibit the growth of less than 50% amount of the initial bacteria; +++: Inhibit the growth of initial bacteria completely; conditions: medium BHI
Description: as §1, §2

P. aeruginosa = experiment: as above; type: cell-based; design: key: -: no inhibitory activity; +: Inhibit the growth of less than 10% amount of the initial bacteria; ++: Inhibit the growth of less than 50% amount of the initial bacteria; +++: Inhibit the growth of initial bacteria completely; conditions: medium LB
Description: as §1, §2

S. aureus B31 = experiment: as above; type: cell-based; design: key: -: no inhibitory activity; +: Inhibit the growth of less than 10% amount of the initial bacteria; ++: Inhibit the growth of less than 50% amount of the initial bacteria; +++: Inhibit the growth of initial bacteria completely; conditions: S. aureus B31, medium LB
Description: as §1, §2

[2] = as above; type: cell-based; design: key: -: no inhibitory activity; +: Inhibit the growth of less than 10% amount of the initial bacteria; ++: Inhibit the growth of less than 50% amount of the initial bacteria; +++: Inhibit the growth of initial bacteria completely; conditions: White aureus 8799, medium LB
Description: as §1, §2

DNase = experiment: Effect of enzymes on antibacterial activity: DNase; type: in vitro ADME
Source text: as §3, §4

[3] = Effect of pH on antibacterial activity; type: physicochemical; conditions: for Residual activity: compared with antimicrobial activity before the treatment
Source text: as §3, §4

RNase = RNase (Bos taurus, UniProt P61823); experiment: Effect of enzymes on antibacterial activity: RNase; type: in vitro ADME
Source text: as §3, §4

Chain of RNase (P61823 27-150): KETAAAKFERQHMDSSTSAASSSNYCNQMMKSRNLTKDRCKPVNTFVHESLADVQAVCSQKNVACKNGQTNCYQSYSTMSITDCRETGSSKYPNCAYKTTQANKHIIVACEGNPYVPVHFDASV

Structure (SMILES): CSCC[C@@H]1NC(=O)[C@H](C(C)C)NC(=O)[C@H](Cc2c[nH]c3ccccc23)NC(=O)[C@H](C(C)C)NC(=O)[C@H](C)NC(=O)[C@H](CS)NC(=O)[C@H](CC(N)=O)NC(=O)[C@H](Cc2ccccc2)NC(=O)CNC(=O)[C@H](Cc2ccc(O)cc2)NC(=O)CNC(=O)[C@H](Cc2ccccc2)NC(=O)[C@H](C(C)C)NC(=O)[C@H](Cc2ccc(O)cc2)NC(=O)[C@H](CS)NC(=O)[C@H](Cc2c[nH]c3ccccc23)NC1=O [pantocin wh-1] (cyclo(AVWVMWCYVFGYGFNC))
- Inhibition activity (L .monocytogenes; L .monocytogenes, medium BHI): + (Inhibit the growth of less than 10% amount of the initial bacteria)
- inhibitory activity (L .monocytogenes; Listeria monocytogenes): partial inhibitory activity
- antibacterial activity after lysozyme (lysozyme; lysozyme): insensitive
- Residual activity (lysozyme; lysozyme treatment, compared with antimicrobial activity before the treatment): 100%
- Residual activity ([1]; Heat 50℃/ 30 min): 100%
- Residual activity ([1]; Heat 100℃/ 30 min): 90%
- Residual activity ([1]; Heat 121℃/ 15 min): 72%
- retained activity ([1]; autoclaving at 121 °C for 30 min): 72%
- heat stability ([1]; incubation at 100 °C for 30 min): heat stable
- Inhibition activity (S. aureus B30): -
- Inhibition activity (Feces Enterococcus): -
- Inhibition activity (S. pyogenes): -
- Inhibition activity (S. aureus AM025): -
- Inhibition activity (S. aureus 21A): -
- Inhibition activity (Dysgalactiae): -
- Inhibition activity (P. aeruginosa): -
- Inhibition activity (S. aureus B31): -
- Inhibition activity [2]: -
- antibacterial activity after DNase I (DNase; DNase I): insensitive
- Residual activity (DNase; DNase treatment, compared with antimicrobial activity before the treatment): 100%
- retained initial antibacterial activity ([3]; broad pH range (pH 2–12)): ~100%
- Residual activity ([3]; pH2-6, buffer 1 h at 25 °C): 90%
- Residual activity ([3]; pH6-8, buffer 1 h at 25 °C): 100%
- Residual activity ([3]; pH8-12, buffer 1 h at 25 °C): 85%
- antibacterial activity after RNase A (RNase; RNase A): insensitive
- Residual activity (RNase; RNase treatment, compared with antimicrobial activity before the treatment): 100%
